# Source: publication PMC8995209 (Cell, 2022)
# Molecular target: iaaH (Agrobacterium tumefaciens, UniProt P0A2X2)
# Format: cell-based
# Settings: hydrolysis to NAA; 48 h conditioning
# Chain of iaaH (P0A2X2 whole entry): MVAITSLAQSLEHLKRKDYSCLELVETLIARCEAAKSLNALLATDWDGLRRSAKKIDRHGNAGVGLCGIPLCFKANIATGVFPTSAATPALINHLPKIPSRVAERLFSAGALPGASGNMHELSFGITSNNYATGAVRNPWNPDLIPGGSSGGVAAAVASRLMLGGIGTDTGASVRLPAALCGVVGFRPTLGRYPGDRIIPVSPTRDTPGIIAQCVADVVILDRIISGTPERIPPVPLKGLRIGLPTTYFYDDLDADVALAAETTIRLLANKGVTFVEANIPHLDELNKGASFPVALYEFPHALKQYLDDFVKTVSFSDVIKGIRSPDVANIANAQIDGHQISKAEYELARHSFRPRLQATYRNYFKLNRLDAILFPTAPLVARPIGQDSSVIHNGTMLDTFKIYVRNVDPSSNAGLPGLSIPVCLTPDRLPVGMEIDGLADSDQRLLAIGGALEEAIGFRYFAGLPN
structure (smiles),measurement,value
"NC(=O)Cc1cccc2ccccc12 [NAM, 1-naphthaleneacetamide]","conditioned medium of iaaH-expressing CHO-K1 cells, auxin read out by Receiver c",also able to produce the auxin NAA
